According to patent US9682058B2, “Method of treating viral infections by administration of ethyl mercury or thiol derivative thereof” (BEECH TREE LABS, INC., priority 2010, dated 2017):
Several values for one entry are separate records, joined by “and”; a condition that tells them apart may be missing. Equal entries are not always repeated. Where two headings read alike, the source gives them in different places.

How the values were obtained:
[1] = test system: herpes virus; conditions: cited from earlier work
[2] = test system: herpes viruses; conditions: cited from earlier work
[3] = test system: JC virus
[4] = test system: TUBB4
[5] = Excerpt: A parent shared a drink with their child. Later that day the child asked their parent, who is an RN, to check the child's glands as they felt swollen and their throat hurt.
[6] = test system: common cold
Procedure: A fifty-three old person with classic symptoms of the common cold used one drop of thimerosal (in a dose of 0.05 cc) every hour for one day.
The child of the person in Example 4 was treated with thimerosal for the common cold on several occasions. The child experienced symptoms for 5-7 days without treatment, which was reduced to 1-3 days when treated with thimerosal.

[7] = test system: BK virus
[8] = test system: HSV; conditions: Vero cells, 40 ng/ml
Procedure: Green Monkey Kidney (Vero) cells were treated with thimerosal (40 ng/ml) at various time points (30 minutes, 1 hour, 2 hours, 3, hours, 4 hours, 6 hours and 8 hours) after HSV infection. The number of plaques formed on day 6 post-infection was used to measure the effectiveness of thimerosal in preventing HSV infections. The number of plaques was normalized to the number of plaques in the control.

[9] = test system: HSV; conditions: Vero cells, 40 ng/ml; remark: listed apart in the source
Procedure: Green Monkey Kidney (Vero) cells were treated with thimerosal (40 ng/ml) at various time points (12 hours, 4 hours, 1 hour, and 30 minutes) prior to and at the time of HSV infection. The number of plaques formed on day 6 post-infection was used to measure the effectiveness of thimerosal in preventing HSV infections.

[10] = test system: SP1
[11] = test system: molluscum contagiosum, a poxvirus infection; conditions: several children, one drop (0.05 cc) every 15 minutes for an hour, then hourly; six times daily on days 2 and 3
[12] = test system: LAT-SPNS1
[13] = test system: TUBB4Q
[14] = test system: adenovirus; conditions: person, one drop (0.05 cc) every 15 minutes for an hour, then every hour until bedtime
Procedure: A person with symptoms of an adenovirus infection took one drop of thimerosal (in a dose of 0.05 cc) every 15 minutes for an hour, and then one drop every hour until bedtime.

[15] = test system: Vero cells; conditions: thimerosal doses tested (40 ng or 80 ng in 100 μl media)
Procedure: Vero cells were plated to a density of 70% confluency in 96-well dishes at a concentration of 75,000 cells/well). Cells were pretreated with either 40 ng or 80 ng thimerosal in 100 μl media for either 1 hour, 2 hours, 3 hours, 4 hours or 16 hours prior to infection.
After 1 hour at 37° C., virus was removed and cells were washed with unsupplemented MEM to remove unbound virus. The cells were then fed 100 μl/well complete media and stained for Tad (BK virus) or V-ag (JC virus) and scored via direct immunofluorescence.

[16] = test system: TUBE1
[17] = test system: POLR2A
[18] = test system: HSV; conditions: ARPE-19 cells, media of PBMCs incubated with 40 ng/ml thimerosal, overlaid prior to HSV infection
Procedure: PBMCs were incubated with 40 ng/ml thimerosal for a minimum of 6 hours and then were overlaid in ARPE-19 cells at various time points (12 hours, 4 hours, 2 hours, 1 hour, 30 minutes and 10 minutes) prior to HSV infection of the ARPE-19 cells. ARPE-19 cells were not continuously treated with thimerosal. ARPE-19 cells receiving thimerosal treatment with PBMC media was used as a control. The number of plaques formed on day 6 post-infection was used to measure the effectiveness of thimerosal in preventing HSV infections. The number of plaques was normalized to the number of plaques in the control.

[19] = test system: laryngeal papillomas; conditions: child, one drop (0.05 cc) every 15 minutes for an hour, then hourly; six times daily on days 2 and 3
Procedure: A child suffering from laryngeal papillomas spreading to the soft palate was treated with one drop of thimerosal (in a dose of 0.05 cc) every 15 minutes for an hour and then one drop every hour until bedtime. Thimerosal was administered in one drop every six times daily on days 2 and 3 and then as needed on subsequent days.

[20] = test system: TUBA4A
[21] = test system: BK virus; remark: listed apart in the source
[22] = test system: HSV; conditions: ARPE-19 cells, 40 ng/ml, continuous treatment before HSV infection, depending on the treatment time point
[23] = test system: porcine oocytes; conditions: cited from earlier work
[24] = test system: Vero cells
[25] = treatment at the time of infection

SMILES: O=C(O)c1ccccc1S [thiosalicylic acid]
- antiviral activity in vivo [1]: do not provide antiviral activity in vivo

SMILES: O=C(O)c1ccccc1SSc1ccccc1C(=O)O [dithiodibenzoic acid]
- antiviral activity in vivo [1]: do not provide antiviral activity in vivo
- anti-herpes virus activity in vitro [2]: indicated anti-herpes virus activity in vitro

SMILES: C[CH2][Hg][S]c1ccccc1C(=O)[O-].[Na+] [thimerosal]
- infectivity of the JC virus [3]: did not appear to inhibit infectivity
- Fold changes (vs. Control) [4]: 2.13 and 2.12
- symptoms (swollen glands, sore throat) ([5]; child, one drop (0.05 cc) at a two hour interval): symptoms were resolved
- development of symptoms after prophylactic dosing ([5]; parent, dosed as a prophylactic measure): did not develop any symptoms
- duration of common cold symptoms when treated ([6]; child, several occasions, 5-7 days without treatment): 1 to 3 days
- symptoms of the common cold ([6]; fifty-three old male, one drop (0.05 cc) every hour for one day): resolved by the next day
- infectivity of BK virus [7]: reduction of the infectivity of the virus
- number of plaques formed on day 6 post-infection ([8]; all other post-infection time points (30 minutes, 4, 6, 8 hours)): did not significantly reduce the number of plaques
- number of plaques formed on day 6 post-infection ([8]; post-infection treatment from 1-3 hours): significant reduction in the plaque numbers
- number of plaques formed on day 6 post-infection [8, 25]: did not change the number of plaques
- number of plaques formed on day 6 post-infection ([9]; prophylactic therapy (12 hours, 4 hours, 1 hour, 30 minutes prior to HSV infection)): significant decrease in the number of plaques
- number of plaques formed on day 6 post-infection ([9]; treatment 1 hour prior to HSV infection): highest reduction in the plaque number
- number of plaques formed on day 6 post-infection [9, 25]: did not reduce the number of plaques
- Fold changes (vs. Control) [10]: 1.95 and 2.04 and 2
- treatment outcome of molluscum contagiosum [11]: successfully treated
- Fold changes (vs. Control) [12]: 1.87
- Fold changes (vs. Control) [13]: 1.85
- symptoms of an adenovirus infection [14]: significantly reduced and were gone the next day
- toxicity to cells [15]: did not appear to be toxic
- Fold changes (vs. Control) [16]: 1.95 and 2.03 and 1.98
- Fold changes (vs. Control) [17]: −1.84
- antiviral activity (plaques day 6) versus thimerosal alone [18]: stronger antiviral activity
- resolution of the symptoms of laryngeal papillomas [19]: complete in five days
- Fold changes (vs. Control) [20]: 1.96 and 2 and 1.95
- infectivity of BK virus [21]: reduction of the infectivity of the virus
- reduction of infectivity of BK virus [21]: approximately 30%
- inhibition of the activity of HSV (plaques, percent of control) [22]: up to 55%
- oocyte activation ([23]; 10 minute exposure to 200 μM thimerosal followed by 30 minute incubation in 8 mM DTT): induced complete activation of porcine oocytes
- oocyte cell-cycle effect ([23]; thimerosal treatment alone): arrests oocytes in metaphase
- toxicity to cells [24]: appeared to be toxic
- anti-herpes virus activity in vitro [2]: demonstrate activity against herpes viruses
- viral propagation ([2]; thimerosal mixed in a test tube with herpes virus, subsequently introduced into susceptible cells): viral propagation is not inhibited
